Like-named read-outs stand apart in the source and are kept apart here.
Legend:
CIA model rats = experiment: Pharmacodynamic evaluation on rheumatoid arthritis model (type II collagen-induced arthritis, CIA); assay type: in vivo, Wistar rat; conditions: CIA Wistar rats; for degree of joint swelling: FIG. 2B; for gain of body weight: intraperitoneal injection, FIG. 2A
Experimental: The animal model used in this experiment was a type II collagen-induced arthritis animal model (CIA) established by using Wistar rat. On the 0 and 7th day of the experiment, rats were subcutaneously injected with a mixed solution of Bovine II Collagen (CII) and Incomplete Freund's Adjuvant (IFA) to establish a rat model of arthritis.
In the pharmacodynamic test of Compound 1, Compound 1 and the positive drug, methotrexate were dissolved in a solvent system consisting of dimethyl sulfoxide (DMSO), polyethylene glycol 400 (PEG 400) and physiological saline at a volume ratio of 1:10:9.
During the administration to the rats (day 0 to 27 of the experiment), the body weight of a rat was weighed every three days, and the growth was observed. After the joints of the rat began to swell, the degree of joint swelling was scored every two days.
Because the incidence of inflammation in fore paw is low and the hind paws are more prone to swelling and the degree of swelling is more serious, the sum of the scores of two hind paws is used to evaluate the incidence of arthritis in rats. The maximum sum of score is 8 points.
In this experiment, Wistar rats were used to establish a CIA animal model. Joints were taken on the 28th day for subsequent fixation, paraffin embedding, section, staining and histopathological observation. The experiment results are shown as follows: During the experiment, the weight of rats in the control group continued to increase.

hsDHODH = hsDHODH (Homo sapiens (Human), UniProt Q02127); experiment: Activity test at enzyme level: DHODH inhibition, DCIP absorbance at 600 nm; assay type: biochemical
Experimental: Culture and Purification of hsDHODH Protein
The correctly sequenced recombinant plasmid pET-19b-DHODH was transformed into competent E. coli BL21 (DE3), and cultured on LB plate containing ampicillin. Colonies were randomly selected, inoculated into LB medium containing […], and incubate overnight at 37° C., 230 rpm. The cells were inoculated at a ratio of 1:200 in 500 mL of LB medium containing […] and expanded at 37° C., 230 rpm. When the OD value of the cells reached 0.8-1, IPTG was added into the medium to a final concentration of IPDG of 0.5 mM, and expression was induced overnight at 25° C. The induced cells were collected by centrifugation at […], 4° C., washed with deionized water, and centrifuged again to collect the bacterial pellet, which was stored at −80° C.
Purification of protein: cells were re-suspended in lysis liquid containing 50 mM HEPES (pH 8.0), 0.15 M NaCl, 10 mM imidazole, 10% glycerol, 0.1% Triton X-100, and a small amount of soy protease inhibitor added. After re-suspended and mixed homogeneously, cells were ultrasonically disrupted. The disruption solution was centrifuged for 30 min, and the supernatant and precipitate were taken for protein electrophoresis to determine the form of protein. The supernatant was loaded onto a Ni-NTA column, and the pass-through liquid was collected, and then the resin was washed for 3-4 times with a lysis liquid containing 20 mM imidazole, and finally eluted with a lysis liquid containing 300 mM imidazole. After elution, protein solution was collected. 10 μL of the above protein sample was taken for SDS-PAGE electrophoresis to determine the content of target protein. Finally, the eluted protein solution is dialyzed in the dialysis liquid to remove imidazole, thereby obtaining a pure protein.
Method for Testing Activities of Compounds at Enzyme Level
Principles of activity test at enzyme level: firstly, dihydroorotate (DHO) is oxidatively dehydrogenated by DHODH to form orotic acid (Orotate, OA), accompanied by reduction of Flavin mononucleotide (FMN) into reduced flavin mononucleotide (FMNH2) by accepting 2H+ and 2e−, then coenzyme Q (CoQ) as hydrogen acceptor accepting electron and proton from FMNH2 is reduced into reduced coenzyme Q (CoQH2), reduced coenzyme Q transfers electrons to a chromogenic substrate, […] (DCIP), and finally DCIP was reduced. […] The degree to which the substrate DHO is oxidized can be judged based on the degree of decrease in absorbance. The degree of oxidation of the substrate DHO per unit time is the initial rate of the enzymatic reaction. Upon addition of a inhibitor, the initial rate of the enzymatic reaction is reduced.
Substrate DHO was added to start the reaction with a DHO final concentration of 500 μM. The absorbance was read at 600 nm using a BioTek microplate reader and read every 30 s for 6 min. […] For calculating IC50 of a compound, Origin 8.0 was used to test the inhibition rate at least 8 concentrations.

[1] = purified DHODH 10 nM, DHO 500 μM, CoQ 100 μM, DCIP 120 μM, read-out: IC50 (μM) hsDHODH

hsDHODH, sequence (Q02127 whole entry): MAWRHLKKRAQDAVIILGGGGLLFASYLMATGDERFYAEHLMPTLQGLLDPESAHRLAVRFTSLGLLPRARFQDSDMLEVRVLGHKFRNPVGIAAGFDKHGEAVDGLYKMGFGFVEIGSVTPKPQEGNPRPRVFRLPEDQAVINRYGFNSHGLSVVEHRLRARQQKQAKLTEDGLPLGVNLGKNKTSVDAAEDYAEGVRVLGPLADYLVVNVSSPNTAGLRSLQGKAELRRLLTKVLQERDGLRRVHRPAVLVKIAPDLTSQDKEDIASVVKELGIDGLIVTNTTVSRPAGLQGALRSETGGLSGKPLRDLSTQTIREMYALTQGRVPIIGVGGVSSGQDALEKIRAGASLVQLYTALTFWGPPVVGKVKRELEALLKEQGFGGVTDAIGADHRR

IC50 (hsDHODH; [1])	SMILES	gain of body weight (CIA model rats; compared with model group)	also measured
	CN(Cc1cnc2nc(N)nc(N)c2n1)c1ccc(C(=O)N[C@@H](CCC(=O)O)C(=O)O)cc1 [Methotrexate, reference compound]	improve the condition of the rats and the slow gain of body weight	degree of joint swelling (CIA model rats; 0.3 mg/kg intraperitoneal, positive drug): significantly reduce the degree of joint swelling
0.0097 ± 0.0001 µM	CN(/N=C/c1ccccc1C(=O)O)c1nc(-c2ccccc2Cl)cs1 [Compound 1, (E)-4-(2-chlorophenyl)-2-[1-methyl-2-(2-carboxybenzylidene)hydrazino]thiazole]	improve the condition of the rats and the slow gain of body weight	degree of joint swelling (CIA model rats; 5 mg/kg intraperitoneal, compared with model group): significantly reduced; degree of joint swelling (CIA model rats; 30 mg/kg intraperitoneal, compared with model group): more significantly reduced; histopathological features of joint tissue (HE staining) (CIA model rats; joints taken on day 28, FIG. 3): significantly alleviated; synovial hyperplasia and inflammatory cell infiltration (CIA model rats; tissue sections, compared with model group): greatly improved
	CCCCOC(=O)c1ccccc1/C=N/Nc1nc(-c2ccccc2Cl)cs1 [Compound A4, (E)-4-(2-chlorophenyl)-2-(2-butoxyformylbenzylidenehydrazino)thiazole]		IC50 (hsDHODH; pharmaceutically acceptable esters (prodrugs of A and B series), hsDHODH enzyme test, read-out: IC50): 3.53 ± 0.148 µM
0.0088 ± 0.0001 µM	Cc1sc(N(C)/N=C/c2ccccc2C(=O)O)nc1-c1ccccc1 [Compound 12, (E)-5-methyl-4-phenyl-2-[1-methyl-2-(2-carboxybenzylidene)hydrazino]thiazole]		
0.0868 ± 0.0009 µM	CN(/N=C/c1ccc(C(F)(F)F)cc1C(=O)O)c1nc(-c2ccccc2Cl)cs1 [Compound 8, (E)-4-(2-chlorophenyl)-2-[1-methyl-2-(4-trifluoromethyl-2-carboxybenzylidene)hydrazino]thiazole]		
0.0662 ± 0.0002 µM	Cc1sc(N/N=C/c2ccccc2C(=O)O)nc1-c1ccccc1Cl [Compound 15, (E)-5-methyl-4-(2-chlorophenyl)-2-(2-carboxylbenzylidenehydrazino)thiazole]		

Source: patent publication US10919869B2, “Thiazole derivative and applications” (EAST CHINA UNIVERSITY OF SCIENCE AND TECHNOLOGY, priority 2016, dated 2021)
